Reference: patent publication US20120202794A1 (priority 2011, published 2012)

Key:
HCV Replicon 1b = test: HCV inhibition assay, HCV replicon 1b (Clone A or ET-lunet cells; RT-PCR or luciferase reporter); format: cell-based; settings: Hepatitis C virus, 96 h, HCV replicon 1b; 4 days incubation; read-out: Replicon 1b potency EC90
Method in brief: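 Inhibition read either as luciferase signal (ET replicon) or as HCV 5′-NTR RNA by RT-PCR relative to rRNA, % = (1−2^−ΔΔCt)×100, against DMSO controls, giving EC50 and EC90. Cells: Clone A or ET-lunet, seeded 1500 or 3000/well, exposed 4 days at 37 °C, 5% CO2, 0.5% DMSO.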

[1] = Cell cytotoxicity assay (MTS), CC90 as reported in Table 1, cell line not stated; format: cell-based; settings: human, cell line not given
Method in brief: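 MTS read-out (490 nm, 2 h dye step) after 8-day exposure at 37° C. Huh7, HepG2, BxPC3 were seeded at 2×10^3 and CEM at 5×10^3 cells/well, with compound serially diluted from 100 μM. CC90 comes from comparison with untreated control wells.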

| Structure (SMILES) | EC90 (HCV Replicon 1b) | CC90 at 8 days [1] | CC90 at 8 days ([1]; MTS assay, 8 days incubation) |
| --- | --- | --- | --- |
| CC(C)C[C@H]1CN(C(=O)[C@@H]2C[C@H]2c2ccc(Cl)cc2F)[C@@H](CC(C)C)C(=O)N1 [Compound 250, (3S,6S)-4-[(1R,2R)-2-(4-Chloro-2-fluoro-phenyl)-cyclopropanecarbonyl]-3,6-diisobutyl-piperazin-2-one] | 0.36 µM | > 10 µM |  |
| CCC[C@H]1CN(C(=O)[C@@H]2C[C@H]2c2ccc(Cl)cc2F)[C@@H](CC(C)C)C(=O)N1 [Compound 251] | 0.2 µM | > 10 µM |  |
| CC(C)C[C@H]1C(=O)N[C@@H](C2CCCCC2)CN1C(=O)[C@@H]1C[C@H]1c1ccc(Cl)cc1F [Compound 252] | 0.67 µM | > 10 µM |  |
| CC(C)C[C@H]1C(=O)N[C@@H](C2CCCC2)CN1C(=O)[C@@H]1C[C@H]1c1ccc(Cl)cc1F [Compound 253, (3S,6S)-4-[(1R,2R)-2-(4-Chloro-2-fluoro-phenyl)-cyclopropanecarbonyl]-6-cyclopentyl-3-isobutyl-piperazin-2-one] | 0.5 µM | > 10 µM |  |
| CC(C)C[C@H]1C(=O)N[C@@H](C(C)C)CN1C(=O)[C@@H]1C[C@H]1c1ccc(Cl)cc1F [Compound 254, (3S,6S)-4-[(1R,2R)-2-(4-Chloro-2-fluoro-phenyl)-cyclopropanecarbonyl]-3-isobutyl-6-isopropyl-piperazin-2-one] | 0.66 µM | > 10 µM |  |
| CC(C)C[C@H]1C(=O)N[C@@H](c2ccccc2)CN1C(=O)[C@@H]1C[C@H]1c1ccc(Cl)cc1F [Compound 255, (3S,6S)-4-[(1R,2R)-2-(4-Chloro-2-fluoro-phenyl)-cyclopropanecarbonyl]-3-isobutyl-6-phenyl-piperazin-2-one] | 0.36 µM | > 10 µM |  |
| CC(C)C[C@H]1CN(C(=O)[C@@H]2C[C@H]2c2ccc(F)cc2F)[C@@H](CC(C)C)C(=O)N1 [Compound 256, (3S,6S)-4-[(1R,2R)-2-(2,4-Difluoro-phenyl)-cyclopropanecarbonyl]-3,6-diisobutyl-piperazin-2-one] | 0.22 µM | > 10 µM |  |
| CCC[C@H]1CN(C(=O)[C@@H]2C[C@H]2c2ccc(F)c(F)c2)[C@@H](CC(C)C)C(=O)N1 [Compound 257, (3S,6S)-4-[(1R,2R)-2-(3,4-Difluoro-phenyl)-cyclopropanecarbonyl]-3-isobutyl-6-propyl-piperazin-2-one] | 0.59 µM | > 10 µM |  |
| CC(C)C[C@H]1C(=O)N[C@@H](C2CCCCC2)CN1C(=O)[C@@H]1C[C@H]1c1ccc(F)c(F)c1 [Compound 258, (3S,6S)-6-Cyclohexyl-4-[(1R,2R)-2-(3,4-difluoro-phenyl)-cyclopropanecarbonyl]-3-isobutyl-piperazin-2-one] | 0.56 µM | > 10 µM |  |
| CC(C)C[C@H]1C(=O)N[C@@H](C2CCCC2)CN1C(=O)[C@@H]1C[C@H]1c1ccc(F)c(F)c1 [Compound 259, (3S,6S)-6-Cyclopentyl-4-[(1R,2R)-2-(3,4-difluoro-phenyl)-cyclopropanecarbonyl]-3-isobutyl-piperazin-2-one] | 0.59 µM | > 10 µM |  |
| CC(C)C[C@H]1C(=O)N[C@@H](c2ccccc2)CN1C(=O)[C@@H]1C[C@H]1c1ccc(F)c(F)c1 [Compound 260, (3S,6S)-4-[(1R,2R)-2-(3,4-Difluoro-phenyl)-cyclopropanecarbonyl]-3-isobutyl-6-phenyl-piperazin-2-one] | 0.23 µM | > 10 µM |  |
| CC(C)C[C@H]1CN(C(=O)/C=C/c2ccc(N(C)C)cc2)[C@@H](CC(C)C)C(=O)N1 [Compound 261, (3S,6S)-4-((E)-3-(4-(dimethylamino)phenyl)acryloyl)-3,6-diisobutylpiperazin-2-one] | > 10 µM |  | > 10 µM |
| CC(C)C[C@H]1CN(C(=O)C#Cc2cccnc2)[C@@H](CC(C)C)C(=O)N1 [Compound 262, (3S,6S)-3,6-diisobutyl-4-(3-(pyridin-3-yl)propioloyl)piperazin-2-one] | > 10 µM |  | > 10 µM |
| COc1ccc(/C=C/C(=O)N2C[C@H](CC(C)C)NC(=O)[C@@H]2CC(C)C)cc1 [Compound 263, (3S,6S)-3,6-diisobutyl-4-((E)-3-(4-methoxyphenyl)acryloyl)piperazin-2-one] | 8.7 µM |  | > 10 µM |
| CC(C)C[C@H]1CN(C(=O)/C=C/c2cccc(Cl)c2)[C@@H](CC(C)C)C(=O)N1 [Compound 264, (3S,6S)-4-[3-(3-chlorophenyl)-acryloyl]-3,6-diisobutyl-piperazin-2-one] | 8.1 µM |  | > 10 µM |
| CC(C)C[C@H]1CN(C(=O)/C=C/c2ccccc2Cl)[C@@H](CC(C)C)C(=O)N1 [Compound 265, (3S,6S)-4-[3-(2-chlorophenyl)-acryloyl]-3,6-diisobutyl-piperazin-2-one] | 9.75 µM |  | > 10 µM |
| CC(C)C[C@H]1CN(C(=O)/C=C/c2ccccc2F)[C@@H](CC(C)C)C(=O)N1 [Compound 266] | 7.93 µM |  | > 10 µM |

| Structure (SMILES) | EC90 (HCV Replicon 1b) | CC90 at 8 days [1] | CC90 at 8 days ([1]; MTS assay, 8 days incubation) |
| --- | --- | --- | --- |
| CC(C)C[C@H]1CN(C(=O)/C=C/c2ccc(Cl)cc2Cl)[C@@H](CC(C)C)C(=O)N1 [Compound 267, (3S,6S)-4-[3-(2,4-dichloro-phenyl)-acryloyl]-3,6-diisobutyl-piperazin-2-one] | 6.89 µM |  | > 10 µM |
| CSc1ccc(/C=C/C(=O)N2C[C@H](CC(C)C)NC(=O)[C@@H]2CC(C)C)cc1 [Compound 268, (3S,6S)-3,6-diisobutyl-4-((E)-3-(4-methylsulfanyl-phenyl)acryloyl)piperazin-2-one] | 9.8 µM |  | > 10 µM |
| CC(C)C[C@H]1CN(C(=O)/C=C/c2ccc(C(C)(C)C)cc2)[C@@H](CC(C)C)C(=O)N1 [Compound 269, (3S,6S)-3,6-diisobutyl-4-((E)-3-(4-tert-butyl-phenyl)acryloyl)piperazin-2-one] | 8.9 µM |  | > 10 µM |
| COC(=O)c1ccc(/C=C/C(=O)N2C[C@H](CC(C)C)NC(=O)[C@@H]2CC(C)C)cc1 [Compound 270, Methyl 4-((E)-3-((2S,5S)-2,5-diisobutyl-3-oxopiperazin-1-yl)-3-oxoprop-1-en-1-yl)-benzoate] | > 10 µM |  | > 10 µM |
| CC(C)C[C@H]1CN(C(=O)/C=C/c2c(F)cccc2F)[C@@H](CC(C)C)C(=O)N1 [Compound 271, (3S,6S)-4-[3-(2,6-Difluoro-phenyl)-acryloyl]-3,6-diisobutyl-piperazin-2-one] | > 10 µM |  | > 10 µM |
| CC(C)C[C@H]1CN(C(=O)c2cc(-c3ccc(Cl)cc3)cs2)[C@@H](CC(C)C)C(=O)N1 [Compound 272, (3S,6S)-4-(4-(4-chlorophenyl)thiophene-2-carbonyl)-3,6-diisobutylpiperazin-2-one] | 3.56 µM |  | > 10 µM |
| CC(C)C[C@H]1CN(C(=O)c2cc(-c3ccccc3Cl)on2)[C@@H](CC(C)C)C(=O)N1 [Compound 274, (3S,6S)-4-(5-(2-chlorophenyl)isoxazole-3-carbonyl)-3,6-diisobutylpiperazin-2-one] | 5.95 µM |  | > 10 µM |
| CC(C)C[C@H]1CN(C(=O)c2cc(-c3ccc(Cl)cc3Cl)on2)[C@@H](CC(C)C)C(=O)N1 [Compound 275, (3S,6S)-4-(5-(2,4-dichlorophenyl)isoxazole-3-carbonyl)-3,6-diisobutylpiperazin-2-one] | 6.31 µM |  | > 10 µM |
| CC(C)C[C@H]1CN(C(=O)c2cc(-c3ccc(Cl)c(Cl)c3)on2)[C@@H](CC(C)C)C(=O)N1 [Compound 276, (3S,6S)-4-(5-(3,4-Dichlorophenyl)isoxazole-3-carbonyl)-3,6-diisobutylpiperazin-2-one] | 2.98 µM |  | > 10 µM |
| CSc1ccc(-c2cc(C(=O)N3C[C@H](CC(C)C)NC(=O)[C@@H]3CC(C)C)no2)cc1 [Compound 277, (3S,6S)-3,6-diisobutyl-4-(5-(4-(methylthio)phenyl)isoxazole-3-carbonyl)piperazin-2-one] | 5.84 µM |  | > 10 µM |
| CC(C)C[C@H]1CN(C(=O)Cc2cc(-c3ccc(F)cc3)on2)[C@@H](CC(C)C)C(=O)N1 [Compound 278, (3S,6S)-4-(2-(5-(4-fluorophenyl)isoxazol-3-yl)acetyl)-3,6-diisobutylpiperazin-2-one] | 7.89 µM |  | > 10 µM |
| CC(C)C[C@H]1C(=O)N[C@@H](CC(C)(C)C)CN1C(=O)[C@@H]1C[C@H]1c1ccccc1 [Compound 280, (3S,6S)-3-isobutyl-6-neopentyl-4-((1R,2R)-2phenylcyclopropanecarbonyl)piperazin-2-one] | 8.65 µM |  | > 10 µM |
| CC(C)(C)C[C@H]1CN(C(=O)[C@@H]2C[C@H]2c2ccccc2)[C@@H](CC(C)(C)C)C(=O)N1 [Compound 281, (3S,6S)-3,6-dineopentyl-4-((1R,2R)-2-phenylcyclopropanecarbonyl)-piperazin-2-one] | > 10 µM |  | > 10 µM |
| CCc1ccc(-c2cc(C(=O)N3C[C@H](CC(C)C)NC(=O)[C@@H]3CC(C)C)no2)cc1 [Compound 283, (3S,6S)-4-(5-(4-ethylphenyl)isoxazole-3-carbonyl)-3,6-diisobutylpiperazin-2-one] | 8.75 µM |  | > 10 µM |
| CC(C)C[C@H]1CN(C(=O)c2cc(-c3ccc(C4CC4)cc3)on2)[C@@H](CC(C)C)C(=O)N1 [Compound 284, (3S,6S)-4-(5-(4-cyclopropylphenyl)isoxazole-3-carbonyl)-3,6-diisobutylpiperazin-2-one] | > 10 µM |  | > 10 µM |
| COc1ccc2c(c1)CCc1cc(C(=O)N3C[C@H](CC(C)C)NC(=O)[C@@H]3CC(C)C)sc1-2 [Compound 286, (3S,6S)-3,6-diisobutyl-4-(7-methoxy-4,5-dihydronaphtho[1,2-b]thiophene-2-carbonyl)piperazin-2-one] | 3.91 µM |  | > 10 µM |
